Results taken from US20260041653A1, “AN HDAC INHIBITOR FOR TREATING CANCER WITH A MODIFIED STK11 ACTIVITY OR EXPRESSION” (Tango Therapeutics, Inc., priority 2022, published 2026).
Like-named read-outs stand apart in the source and are kept apart here.

Assays:
Predicted human PK = conditions: calculated from rodent and dog data
Description: The human PK parameters for a dose of Compound I that is predicted to be efficacious were calculated based on the data from rodent and dog studies and are presented in Table 6.

CYP2C8 = CYP2C8 (Homo sapiens, UniProt P10632); test: Metabolism by recombinant human CYP2C8; type: in vitro ADME; conditions: read-out: terminal half life (T1/2), rh CYP2C8
Description: (§1) Drug metabolizing enzymes involved in the biotransformation of Compound I were investigated using human liver microsomes (HLM) and recombinant enzymes. Compound I was stable in HLMs (>93% remaining after 240 minutes of incubation with HLM protein concentration at 0.6 mg/ml). CYP selective inhibitor experiments were not performed due to lack of appreciable Compound I turnover.

[1] = PK/PD study, plasma concentrations in MC38 tumor-bearing mice; type: in vivo, C57BL/6 mice; conditions: for free unbound exposure in plasma: based on 10.05% free fraction
Description: In a separate PK/PD study, MC38 tumor-bearing female C57BL/6 mice (12/group) were assigned to treatment groups with similar mean tumor volumes of approximately 430 mm^3 and treated with vehicle (5% N,N-dimethylacetamide [DMA]+30% polyethylene glycol [PEG] 400+65% of 30% 2-hydroxypropyl-beta-cyclodextrin [HP-β-CD] in water) or Compound I at 30, 100, and 300 mg/kg once daily (QD) for 2 days. […] Peripheral blood mononuclear cells (PBMC) and tumor samples were harvested at 2, 8, and 24 hours after last dose. The PBMC samples were processed for determination of mean florescent level of acetyl-histone H2B by flow cytometry. Tumor samples were processed for determination of protein levels of acetyl-histone H3 by Western blot.

hERG potassium channel = biological target: T1, hERG potassium channel (Homo sapiens, UniProt Q12809); test: hERG manual patch-clamp in HEK 293 cells; type: cell-based
T1 construct: expressed in transfected cells
Description: (§2) The effects of Compound I on a cloned human ether-à-go-go-related gene (hERG) potassium channels stably expressed in human embryonic kidney (HEK) 293 cells were measured using manual patch-clamp technique. Briefly, Compound I was soluble at 100 uM in 0.3% DMSO, pH 6.9. A does range-finding (DRF) assay was performed with Compound I at 3. 30, and 100 uM concentrations.

[2] = Pharmacokinetics in beagle dogs; type: in vivo
Description: The PK of Compound I in beagle dogs was determined in plasma following single IV bolus and PO administration to non-naïve male and female beagle dogs. The vehicle used for IV was 20% wt/vol 2-hydroxypropyl β cyclodextrin (HPβCD), 1% vol/vol DMSO in saline, and PO was in 5% DMA, 30% PEG400 and 65% (30% HPβCD in water) (solution) or 0.5% MC (suspension). Plasma samples were collected from 3 animals/group at 0.083, 0.25, 0.5, 1, 3, 6, 9, 12, 24 and 48 hours after dosing.

CYP3A4 = CYP3A4 (Homo sapiens, UniProt P08684); test: CYP3A4 (Table 5); type: in vitro ADME; conditions: test not described
[3] = Solubility in hERG assay medium; type: physicochemical; conditions: aqueous buffer, kinetic from dmso stock, 0.3% DMSO, pH 6.9
Description: as §2

CYP2B6 = CYP2B6 (Homo sapiens, UniProt P20813); test: Metabolism by recombinant human CYP2B6; type: in vitro ADME; conditions: read-out: terminal half life (T1/2), rh CYP2B6
Description: as §1

[4] = Stability in human liver microsomes; type: in vitro ADME; conditions: 240 minutes; HLM protein concentration 0.6 mg/ml
Description: as §1

[5] = 30, 100, 300 mg/kg QD for 2 days

T1 sequence (Q12809 whole entry): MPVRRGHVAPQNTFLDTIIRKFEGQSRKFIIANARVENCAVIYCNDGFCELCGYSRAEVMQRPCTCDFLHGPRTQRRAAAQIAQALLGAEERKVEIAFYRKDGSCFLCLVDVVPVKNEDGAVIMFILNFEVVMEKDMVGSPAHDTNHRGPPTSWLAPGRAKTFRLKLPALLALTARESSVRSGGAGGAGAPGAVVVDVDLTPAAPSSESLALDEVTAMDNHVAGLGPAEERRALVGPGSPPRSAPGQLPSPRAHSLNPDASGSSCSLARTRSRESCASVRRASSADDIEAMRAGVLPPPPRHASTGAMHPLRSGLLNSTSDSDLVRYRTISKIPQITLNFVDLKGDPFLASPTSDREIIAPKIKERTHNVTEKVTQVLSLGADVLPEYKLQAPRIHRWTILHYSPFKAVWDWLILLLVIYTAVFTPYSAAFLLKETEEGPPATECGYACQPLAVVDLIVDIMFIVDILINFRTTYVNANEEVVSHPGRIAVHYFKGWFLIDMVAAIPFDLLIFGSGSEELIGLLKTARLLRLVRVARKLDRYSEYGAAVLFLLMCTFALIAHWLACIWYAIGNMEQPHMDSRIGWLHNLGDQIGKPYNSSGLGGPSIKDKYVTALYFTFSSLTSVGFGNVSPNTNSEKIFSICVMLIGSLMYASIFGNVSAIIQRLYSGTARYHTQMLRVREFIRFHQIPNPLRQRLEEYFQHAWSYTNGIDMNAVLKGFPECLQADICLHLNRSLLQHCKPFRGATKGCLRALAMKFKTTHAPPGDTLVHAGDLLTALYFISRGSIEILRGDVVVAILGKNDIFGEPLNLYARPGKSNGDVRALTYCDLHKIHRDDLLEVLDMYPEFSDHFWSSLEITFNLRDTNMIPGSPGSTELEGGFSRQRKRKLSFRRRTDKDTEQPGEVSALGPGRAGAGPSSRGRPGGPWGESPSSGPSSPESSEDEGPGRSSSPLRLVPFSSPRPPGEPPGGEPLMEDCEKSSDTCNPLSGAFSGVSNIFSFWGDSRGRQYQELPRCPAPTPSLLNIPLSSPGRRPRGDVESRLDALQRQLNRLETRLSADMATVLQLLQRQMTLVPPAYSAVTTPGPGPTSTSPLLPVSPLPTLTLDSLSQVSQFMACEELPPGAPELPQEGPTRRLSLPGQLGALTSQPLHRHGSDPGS
Sequence of CYP3A4 (P08684 whole entry): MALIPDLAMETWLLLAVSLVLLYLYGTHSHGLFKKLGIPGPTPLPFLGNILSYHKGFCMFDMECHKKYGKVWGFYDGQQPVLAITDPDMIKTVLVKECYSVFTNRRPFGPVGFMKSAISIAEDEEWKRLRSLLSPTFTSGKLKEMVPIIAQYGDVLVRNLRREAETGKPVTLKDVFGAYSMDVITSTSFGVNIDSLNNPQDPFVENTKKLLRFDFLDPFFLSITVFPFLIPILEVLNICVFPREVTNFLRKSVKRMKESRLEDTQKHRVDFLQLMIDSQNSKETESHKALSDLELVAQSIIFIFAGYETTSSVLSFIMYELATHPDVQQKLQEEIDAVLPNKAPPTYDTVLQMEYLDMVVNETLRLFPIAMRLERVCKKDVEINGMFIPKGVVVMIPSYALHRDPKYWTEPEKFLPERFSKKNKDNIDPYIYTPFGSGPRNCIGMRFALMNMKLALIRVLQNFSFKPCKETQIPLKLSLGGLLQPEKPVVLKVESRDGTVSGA
Sequence of CYP2B6 (P20813 whole entry): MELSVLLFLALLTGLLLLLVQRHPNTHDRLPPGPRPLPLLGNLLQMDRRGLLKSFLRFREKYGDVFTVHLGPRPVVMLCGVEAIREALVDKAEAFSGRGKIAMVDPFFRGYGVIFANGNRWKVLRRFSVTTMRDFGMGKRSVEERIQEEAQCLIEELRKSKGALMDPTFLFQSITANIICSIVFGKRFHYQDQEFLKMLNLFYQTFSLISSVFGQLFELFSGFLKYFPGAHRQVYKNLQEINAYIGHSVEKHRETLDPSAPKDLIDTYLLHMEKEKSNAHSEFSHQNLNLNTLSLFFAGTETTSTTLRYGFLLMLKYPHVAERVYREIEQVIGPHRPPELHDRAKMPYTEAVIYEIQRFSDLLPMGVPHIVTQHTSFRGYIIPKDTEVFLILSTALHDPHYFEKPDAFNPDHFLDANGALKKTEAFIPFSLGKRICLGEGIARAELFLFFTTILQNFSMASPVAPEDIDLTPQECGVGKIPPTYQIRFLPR
Sequence of CYP2C8 (P10632 whole entry): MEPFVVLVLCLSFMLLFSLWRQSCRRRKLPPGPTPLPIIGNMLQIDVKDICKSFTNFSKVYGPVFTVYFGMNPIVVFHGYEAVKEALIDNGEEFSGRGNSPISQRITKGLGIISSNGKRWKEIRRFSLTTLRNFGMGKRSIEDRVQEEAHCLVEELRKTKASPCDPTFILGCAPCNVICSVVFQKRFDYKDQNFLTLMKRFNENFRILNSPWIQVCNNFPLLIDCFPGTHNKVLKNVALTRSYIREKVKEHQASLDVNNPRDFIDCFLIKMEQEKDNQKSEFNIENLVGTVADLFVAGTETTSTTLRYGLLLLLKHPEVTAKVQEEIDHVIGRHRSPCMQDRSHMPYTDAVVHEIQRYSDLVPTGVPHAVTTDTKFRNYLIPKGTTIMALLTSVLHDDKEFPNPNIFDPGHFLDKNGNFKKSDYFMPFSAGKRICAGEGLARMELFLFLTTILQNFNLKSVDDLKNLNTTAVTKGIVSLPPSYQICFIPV

Question: Which results are given for C[S@@](=N)(=O)c1ccc(C(=O)Nc2cc(-c3ccc(F)cc3)ccc2N)cc1 [Compound I, (R)—N-(4-amino-4′-fluoro-[1,1′-biphenyl]-3-yl)-4-(S-methylsulfonimidoyl)benzamide]?
Answer: % F (Predicted human PK): 78%; MRT (Predicted human PK): 9.5 h; T1/2 (Predicted human PK): 6.6 h; Total AUC (Predicted human PK; dose predicted to be efficacious): 6.3 µg·h/mL; half-life (CYP2C8): > 60 min; free unbound exposure in plasma ([1]; 30 mg/kg QD for 2 days): 5470 ng·h/mL; free unbound exposure in plasma ([1]; 100 mg/kg QD for 2 days): 17238 ng·h/mL; free unbound exposure in plasma ([1]; 300 mg/kg QD for 2 days): 69665 ng·h/mL; plasma concentrations versus dose [1, 5]: dose proportional; time of maximal plasma concentrations after the last dose [1, 5]: 1 h; IC50 (hERG potassium channel; Table 5, read-out: hERG IC50): > 30 µM; IC50 (hERG potassium channel; definitive hERG assay, replicates of 3, read-out: hERG potassium current IC50): 71.1 µM; inhibition at 3 µM (hERG potassium channel; human, HEK 293 cells stably expressing hERG, 3 uM, dose range-finding assay, read-out: inhibition of hERG currents): 15.7%; inhibition at 30 µM (hERG potassium channel; human, HEK 293 cells stably expressing hERG, 30 uM, dose range-finding assay, read-out: inhibition of hERG currents): 45.9%; inhibition at 100 µM (hERG potassium channel; human, HEK 293 cells stably expressing hERG, 100 uM, dose range-finding assay, read-out: inhibition of hERG currents): 73.6%; PO bioavailability (% F) ([2]; beagle dogs, solution at 3 mg/kg, fasted, 3 mg/kg): 67%; half-life ([2]; both sexes, beagle, dog, plasma): 504 min; clearance ([2]; both sexes, beagle, dog, plasma, intravenous, read-out: CL, p): 9.6 mL/min/kg; bioavailability ([2]; both sexes, beagle, dog, plasma, po, 3 mg/kg, beagle dogs, solution at 3 mg/kg, fasted, read-out: PO bioavailability (% F)): 67.4%; CYP3A4 (CYP3A4): No signal; solubility [3]: ≥ 100 µM; half-life (CYP2B6): > 60 min; remaining after incubation with HLM [4]: > 93%
